Measured values published in patent publication US6338963B1, “Use of carbon monoxide dependent guanylyl cyclase modifiers to stimulate neuritogenesis” (NeoTherapeutics, Inc., priority 1994, dated 2002).

Columns and labels:
rat cultured astrocytes = assay: Release of radioactively labeled adenine-based purines from rat cultured astrocytes; assay type: cell-based
TGFβ2 [1] = assay: Western blot of astrocyte cytosolic proteins: TGFβ2; assay type: cell-based, rat
Method: (§1) Western blot analysis of cytosolic proteins from cultured astrocytes was performed to detect the factors NGF and TGFβ2. The results are shown in FIG. 58A for NGF at 6 and 12 hours and in FIG. 58B for TGFβ2 at 6 and 12 hours.
(§2) Western blot analysis of cytosolic proteins deriving from cultured astrocytes treated for 6 or 12 hours with 100 μM AIT-082 was performed. AIT-082 is able to promote the production of neurotrophic factors from rat cultured astrocytes as measured by Western blot analysis. The results are shown in FIG. 62A for NGF and in FIG. 62B for TGFβ2. Electrophoresis was performed in 12% (for NBF) or 15% (for TGFβ2) SDS-PAGE (20 μg of total protein per lane). The separated proteins were transferred onto a PVDF membrane (Bio-Rad Laboratories, Italy).

[2] = test system: MAP kinases ERK1 (44 kDa) and ERK2 (42 kDa); assay: Western blot of phospho-ERK1/2 in cultured astrocytes; assay type: cell-based, rat; conditions: for activation (phosphorylation) of MAP kinases ERK1 and ERK2: astrocyte cytosolic proteins
Method: In FIG. 60, the activation of MAP kinases ERK1 (44 kDa) and ERK2 (42 kDa) by guanosine is shown. Cultured astrocytes were harvested at 4° C. in lysis buffer specific for MAP kinase: 25 mM Tris buffer, pH 7.4, containing 150 mM NaCl, 100 μM sodium orthovanadate, 1.5 mM MgCl2, 1.0 mM EDTA, 1% NP40, 10% glycerol, 1 mM PMSF, 5 μg/ml leupeptin, and 10 μg/ml aprotinin and sonicated and centrifuged at 14,000 rpm for 5 min. Aliquots of the supernatants were processed for the assessment of protein concentration (M. M. Bradford, “A Rapid and Sensitive Method for the Quantitation of Microgram Quantities of Protein Using the Principle of Protein-Dye Binding,” Anal. Biochem. 72: 248-254 (1976)). Electrophoresis was performed in 12% SDS-PAGE, using 20 μg of total protein per lane and separated proteins were then transferred onto a PVDF membrane (Bio-Rad Laboratories, Italy). Membranes were first incubated with polyclonal primary antibody (rabbit phospho-ERK1/2 antibody, New England Biolabs, Germany; final dilution 1:1000) for 1 hour and then with donkey anti-rabbit HPR-conjugated secondary antibody (Amersham, Italy; final dilution 1:5000) for another 1 hour, both at room temperature. Immunocomplexes were visualized using the enhancing chemiluminescence detection system (ECL) (Amersham, Italy).
This activation was no longer evident after 10 minutes or 20 minutes of stimulation. […] This effect is likely independent of the activity of growth factors, such as NGF, that also act through this molecular pathway. Cultured astrocytes were harvested at 4° C. in lysis buffer specific for MAP kinase: 25 mM Tris buffer, pH 7.4, containing 150 mM NaCl, 100 μM sodium orthovanadate, 1.5 mM MgCl2, 1.0 mM EDTA, 1% NP40, 10% glycerol, 1 mM PMSF, 5 μg/ml leupeptin, and 10 μg/ml aprotirin and sonicated and centrifuged at 14,000 prm for 5 min. Aliquots of the supernatants were processed for the assessment of protein concentration (Bradford, 1976). […]

TGFβ2 [3] = assay: TGFβ2 release from rat cultured astrocytes (ELISA); assay type: cell-based
Method: NGF and TGFβ2 levels were assayed in the culture medium of the astrocytes by specific ELISA assays using kits from Roche (Germany) and Promega (USA) respectively. NGF basal levels were 56.3±3.2 pg/ml. TGFβ2 levels were 9.1±0.06 pg/ml.
In FIG. 61, the dose-response curves of NGF and TGFβ2 release from rat cultured astrocytes as the result of exposure to AIT-082 are shown.

NGF = assay: Western blot of astrocyte cytosolic proteins: NGF; assay type: cell-based, rat
Method: as §1, §2

In the case of `Nc1nc2c(ncn2[C@@H]2O[C@H](CO)[C@@H](O)[C@H]2O)c(=O)[nH]1` [guanosine], the “ADP, radioactivity released in the culture medium” value (rat cultured astrocytes; 300 μM, 1 hour) is reported as 0.84 ± 0.09 cpm × 10^3, the “AMP, proportional release” value (rat cultured astrocytes; 300 μM, 1 hour) is reported as “(12.3 ± 1.7) percentage of the total [^3H]-purines released” and the “AMP, radioactivity released in the culture medium” value (rat cultured astrocytes; 300 μM, 1 hour) is reported as 1.58 ± 0.22 cpm × 10^3. For the same compound, the “ATP, proportional release” value (rat cultured astrocytes; 300 μM, 1 hour) was “(5.5 ± 0.7) percentage of the total [^3H]-purines released”, the “ATP, radioactivity released in the culture medium” value (rat cultured astrocytes; 300 μM, 1 hour) was 0.71 ± 0.09 cpm × 10^3 and the “Adenosine, radioactivity released in the culture medium” value (rat cultured astrocytes; 300 μM, 1 hour) was 1.53 ± 0.10 cpm × 10^3. For the same compound, the “Hypoxanthine, proportional release” value (rat cultured astrocytes; 300 μM, 1 hour) was “(24.7 ± 1.5) percentage of the total [^3H]-purines released”, the “Hypoxanthine, radioactivity released in the culture medium” value (rat cultured astrocytes; 300 μM, 1 hour) was 3.41 ± 0.20 cpm × 10^3 and the “Inosine, radioactivity released in the culture medium” value (rat cultured astrocytes; 300 μM, 1 hour) was 4.64 ± 0.51 cpm × 10^3. The “ADP, proportional release” value (rat cultured astrocytes; 300 μM, 3 hours) was “(4.0 ± 0.6) percentage of the total [^3H]-purines released”, the “ADP, radioactivity released in the culture medium” value (rat cultured astrocytes; 300 μM, 3 hours) was 0.50 ± 0.07 cpm × 10^3 and the “AMP, proportional release” value (rat cultured astrocytes; 300 μM, 3 hours) was “(11.9 ± 1.0) percentage of the total [^3H]-purines released”. For the same compound, the “AMP, radioactivity released in the culture medium” value (rat cultured astrocytes; 300 μM, 3 hours) was 1.37 ± 0.14 cpm × 10^3, the “ATP, proportional release” value (rat cultured astrocytes; 300 μM, 3 hours) was “(3.1 ± 0.32) percentage of the total [^3H]-purines released” and the “ATP, radioactivity released in the culture medium” value (rat cultured astrocytes; 300 μM, 3 hours) was 0.39 ± 0.04 cpm × 10^3. The “Adenosine, proportional release” value (rat cultured astrocytes; 300 μM, 3 hours) was “(9.3 ± 0.9) percentage of the total [^3H]-purines released”, the “Adenosine, radioactivity released in the culture medium” value (rat cultured astrocytes; 300 μM, 3 hours) was 1.16 ± 0.15 cpm × 10^3 and the “Hypoxanthine, proportional release” value (rat cultured astrocytes; 300 μM, 3 hours) was “(26.3 ± 2.7) percentage of the total [^3H]-purines released”. The “Hypoxanthine, radioactivity released in the culture medium” value (rat cultured astrocytes; 300 μM, 3 hours) was 3.29 ± 0.34 cpm × 10^3, the “Inosine, proportional release” value (rat cultured astrocytes; 300 μM, 3 hours) was “(3.25 ± 3.3) percentage of the total [^3H]-purines released” and the “Inosine, radioactivity released in the culture medium” value (rat cultured astrocytes; 300 μM, 3 hours) was 4.09 ± 0.41 cpm × 10^3. For the same compound, the “intracellular content of TGFβ2” value (TGFβ2 [1]; guanosine, 6 and 12 hours) was “increased the intracellular content of NGF and TGFβ2 in time-dependent fashion”, the “activation (phosphorylation) of MAP kinases ERK1 and ERK2” value [2] was “activation” and the “release of TGFβ2 from astrocytes” value (TGFβ2 [3]; exposure for 24 hours) was “dose-dependent increase”. For the same compound, the “intracellular content of NGF” value (NGF; guanosine, 6 and 12 hours) was “increased the intracellular content of NGF and TGFβ2 in time-dependent fashion”.

For `O=C(CCn1cnc2c(=O)[nH]cnc21)Nc1ccc(C(=O)O)cc1` [AIT-082, N-4-carboxyphenyl-3-(6-oxohydropurin-9-yl)propanamide], the “outflow of radioactive adenine-based purines” value (rat cultured astrocytes; astrocytes exposed for one hour) was “dose-dependent increase”, the “release of adenosine and inosine” value (rat cultured astrocytes; first hour of the release) was “increased the release of adenosine and inosine in a dose-dependent fashion” and the “release of hypoxanthine and the adenine nucleotides ATP, ADP, or AMP” value (rat cultured astrocytes; first hour of the release) was “without effecting the release”. The “intracellular levels of TGFβ2” value (TGFβ2 [1]; 100 μM AIT-082, 6 or 12 hours) was “increased in time-dependent manner”, the “time of maximal activation of the enzyme cascade” value ([2]; AIT-082 100 μM, no longer evident after 10 or 20 minutes) was 5 min and the “activation (phosphorylation) of MAP kinases ERK1 and ERK2” value [2] was “stimulated the phosphorylation of MAP kinases ERK1 (44 kDa) and ERK2 (42 kDa)”. The “increase of TGFβ2 production as compared to a control” value (TGFβ2 [3]; rat cultured astrocytes) was 1.7 fold and the “intracellular levels of NGF” value (NGF; 100 μM AIT-082, 6 or 12 hours) was “increased in time-dependent manner”.
